Patent US20250145948A1, “METHOD FOR ASSESSING DIFFERENTIATION POTENTIAL OF CELLS IN CULTURE BROTH IN DIFFERENTIATION OF PLURIPOTENT STEM CELLS INTO NEURAL CELLS OF MIDBRAIN FLOOR PLATE REGION” (SUMITOMO PHARMA CO., LTD., priority 2022, published 2025)

What was measured:
iPS cell line (1231A3) [1] = test: Concentration analysis of NT-3 in culture supernatant (Bioplex); assay type: cell-based, human; details: cell group A1 (SAG 300 nM pretreatment)
Procedure: (§1) An iPS cell line (formal name: 1231A3) as a line for research was used and cultured in a medium having composition given below. The medium was supplemented (with pretreatment) with SAG (N-Methyl-N′-(3-pyridinylbenzyl)-N′-(3-chlorobenzo[b]thiophene-2-carbonyl)-1,4-diaminocyclohexane, final concentration: 300 nM) for 1 day from 1 day before the start of differentiation culture (Day −1) to the start day of differentiation (Day 0) to establish a cell group having high induction efficiency (cell group A1). An untreated cell group (cell group A2) was also established for comparison by cell culture under the same conditions as in the cell group A1 except that the medium was not supplemented with SAG.
(§2) The pluripotent stem cells in each of six types of cell groups provided in the culture experiments A, B, and C were induced to differentiate into neural cells of the midbrain floor plate region in accordance with a predetermined protocol. […] The ratio of Corin-positive cells in each cell group was measured using a cell sorter (BD FACSJazz, BD Accuri or Furukawa PERFLOW Sort) on 12 days from the start of differentiation. […]

iPS cell line (1231A3) [2] = test: Ratio of Corin-positive cells after induction of differentiation into neural cells of the midbrain floor plate region (cell sorter); assay type: cell-based, human; details: cell group A1: pretreatment with SAG 300 nM from Day -1 to Day 0; culture day 12 for the induction of differentiation
Procedure: as §1
As for the medium in the culture experiment A, AK03N basal medium manufactured by Ajinomoto Co., Inc. was used before the start of differentiation, and GMEM containing 8% KSR was used as a basal medium at and after the start of differentiation (Day 0).
as §2

CNC1CCC(N(Cc2cccc(-c3ccncc3)c2)C(=O)c2sc3ccccc3c2Cl)CC1 (stereo not drawn) [SAG, N-Methyl-N′-(3-pyridinylbenzyl)-N′-(3-chlorobenzo[b]thiophene-2-carbonyl)-1,4-diaminocyclohexane]
NT-3 in culture supernatant (iPS cell line (1231A3) [1]; sample collected 3 days after the start of differentiation): specifically increased
NT-3 in culture supernatant (iPS cell line (1231A3) [1]; samples collected 1 day and 5 days after the start of differentiation): not detected
ratio of Corin-positive cells (iPS cell line (1231A3) [2]): 90%
